These results are taken from ChEMBL document CHEMBL1127100, “Structure-activity relationships of a series of glycine antagonists related to 5,7-dichlorokynurenic acid and 3-(2-carboxy-6-chloroindol-3-yl)acetic acid” (Bioorg Med Chem Lett, 1993).

One may read the Ki as the equilibrium dissociation constant of an inhibitor or competing ligand from its target. High values mean lower affinity, low ones higher affinity. The term IC50 denotes the concentration needed to halve the response being measured.

Experiment [1] addresses Glutamate receptor ionotropic, NMDA 1 (Rattus norvegicus, UniProt P35439). Nature of the experiment: Tested for the ability to displace [3H]glycine, by greater than 50%, from NMDA receptor of rat cortical membranes at a dose of 10 uM.
Another experiment deals with Glutamate NMDA receptor. Put plainly: Tested for the ability to inhibit [3H]MK-801 binding to NMDA receptor of rat cortical membranes in the presence of glutamate (1 uM).

In the case of `O=C(O)Cc1c(C(=O)O)[nH]c2cc(Cl)cc(Cl)c12`, in experiment [1], the Ki came out at 0.34 µM. Besides, the IC50 at Glutamate NMDA receptor amounted to 3.33 µM.

In turn, `O=C(O)CCc1c(C(=O)O)[nH]c2cc(Cl)cc(Cl)c12` came in with a Ki in experiment [1] of 0.14 µM.

The compound `O=C(O)CCc1c(C(=O)O)nc2cc(Cl)cc(Cl)c2c1O` gave a Ki in experiment [1] of 7.04 µM. Moreover, the IC50 on Glutamate NMDA receptor worked out at 103 µM.

Consider `O=C(O)c1cc2c(Cl)cc(Cl)cc2[nH]1`, for which the Ki in experiment [1] was determined as 0.98 µM. Further, the half-inhibitory concentration (IC50) at Glutamate NMDA receptor stood at 5.91 µM.

As to `O=C(O)Cc1c(C(=O)O)nc2cc(Cl)cc(Cl)c2c1O`, the Ki in experiment [1] was determined as 0.65 µM. Moreover, the IC50 at Glutamate NMDA receptor is 3.54 µM.

In the case of `O=C(O)Cc1cc2ccccc2nc1C(=O)O`, the Ki in experiment [1] was over 100 µM. In addition, the IC50 on Glutamate NMDA receptor is over 100 µM.

Consider `O=C(O)c1cc(O)c2c(Cl)cc(Cl)cc2n1`, for which the IC50 at Glutamate NMDA receptor worked out at 0.86 µM.

In experiment [1], `O=C(O)Cc1c(C(=O)O)nc2ccccc2c1O` returned an inhibition constant (Ki) of 14.8 µM. Further, the IC50 on Glutamate NMDA receptor came to 83.4 µM.
